In patent US20210106703A1, “RADIOIMMUNOCONJUGATES IN COMBINATION WITH OTHER DRUGS AS TREATMENT AGAINST NHL” (Nordic Nanovector ASA, priority 2017, published 2021):

How the values were obtained:
[1] = system: SUDHL-6 cells; experiment: Alamar Blue cytotoxicity study; assay type: cell-based, human; details: for Combination Index (Chou-Talalay): 120 h
Experimental: Cells were treated with either Humalutin, venetoclax or a combination of both and seeded into 96 well-plates. At each time point after treatment, cells were incubated with Alamar Blue (Thermo Fisher, DALL1100) for 4 hours and fluorescence measurements were performed using a multiplate reader Fluoroskan ascent FL to assess cell proliferation and viability. All experiments were done in duplicates using 2 samples in each experiment. Data were normalized to the untreated controls.
Cells were incubated with 0.25, 0.5, 1, 2.5 or 5 μg/ml of Humalutin in cell culture flasks and incubated at 37° C./5% CO2. After 18-20 hours cells were washed and resuspended in fresh medium. Cell bound activity after washing was measured using a calibrated gamma detector (Cobra II auto-gamma detector, Packard Instrument Company, Meriden, Conn., USA). Cell concentration and viability were also measured after washing using Guava ViaCount Cell Dispersal Reagent for Flow Cytometry (Merck GaA, Darmstadt, Germany) and measured in a Guava EasyCyte 12HT (Merck KGaA, Darmstadt, Germany) to determine how well the cells survived the incubation. Cells were seeded in 96 well plates. Alamar blue viability measurements were performed 120 h after seeding.
Cells were incubated with either 0 (control), 0.5 μg/ml or 1 μg/ml Humalutin for 18 to 20 hours. Cells were then washed and resuspended in fresh medium. Cell bound activity after washing was measured using a calibrated gamma detector (Cobra II auto-gamma detector, Packard Instrument Company, Meriden, Conn., USA). Cell concentration and viability were also measured after washing using Guava ViaCount Cell Dispersal Reagent for Flow Cytometry (Merck GaA, Darmstadt, Germany) and measured in a Guava EasyCyte 12HT (Merck KGaA, Darmstadt, Germany) to determine how well the cells survived the incubation. […] Cytotoxic effect was measured using Alamar blue cell viability assay.
The Chou-Talalay model was used for synergy calculations using the Compusyn software. R (goodness of fit) was calculated for the individual treatments and should be over 0.90 in in vitro culture experiments in order to use the calculated combination index (CI) with confidence. The CI is an indication of synergy: 0-0.9 is considered synergy. Synergism grading was used as described in Table 13, WO2006004917A2.

[2] = system: Ramos cells; experiment: Proliferation study with Wee-1/Myt-1 inhibitors and ^177Lu-lilotomab; assay type: cell-based, human; details: inhibitor 1 μM + ^177Lu-lilotomab 6 MBq/mL (RIT) for 18 h, 6 days after start
Experimental: (§1) Cells were treated for 18 h with 1 μM of the selective Wee-1 kinase inhibitor MK-1775 (Selleckchem, Houston, USA) or of the dual Wee-1/Myt-1 inhibitor PD-166285 (EMD Merck Millipore/Calbiochem, Molsheim, France) alone or in combination with 6 MBq/mL, 2 MBq/mL and 0.5 MB/mL of ^177Lu-lilotomab for Ramos, Rec-1 and DOHH2 cells respectively. At different times after start of incubation, proteins were extracted to measure the CDK1 phosphorylation levels, in parallel, proliferation was determined and at 18 h and 24 h after start of incubation, the percentage of cells in G2/M was assessed (experiments were performed three time except the cell cycle analysis).
(§2) The activity used for the treatment with ^177Lu-lilotomab was chosen to decrease the proliferation to about 50% for the three cell lines compared with non-treated cells.
(§3) Inhibition of G2/M cell cycle arrest radiosensitises radioresistant Ramos model. The Bliss independence mathematical model was next used to investigate the role of MK-1775 or PD-166285 on the response to ^177Lu-lilotomab. A theoretical therapeutic efficacy was calculated for the two combinations (MK-1775 or PD-166285) in the three cell lines. And the comparison between the experimental and the theoretical curves was done.
(§4) Theoretical efficacyRIT+inhib=EfficacyRIT+Efficacyinhib−(EfficacyRIT×Efficacyinhib)

[3] = system: Rec-1 cells; experiment: as above; assay type: cell-based, human; details: Rec-1, inhibitor 1 μM + ^177Lu-lilotomab 2 MBq/mL for 18 h, versus either alone
Experimental: as §1, §2, §3, §4

[4] = system: U-2932 cells; experiment: Real Time Glo viability screen and validation, Betalutin with PARP or cell cycle kinase inhibitors (Examples 4, 7); assay type: cell-based, human; details: U-2932, validation screen, 0-1280 nM
[5] = system: CD3-/CD20+ cells from biopsies of patients with DLBCL or FL; details: 4 patient biopsies, 18 h exposure, day 4
Experimental: Frozen human biopsies from patients with DLBCL or FL were obtained from CHU de Montpellier Plateforme CRB/Hemodiag. Typically, cells were defrosted and grown at 0.5×10^6 cells/mL in 12-well plates at 37° C. in a humidified atmosphere of 95% air/5% CO2. Culture medium consisted of RPMI medium supplemented with 20% heat-inactivated fetal bovine serum, antibiotics ([…] penicillin and 100 μg/ml streptomycin), 50 ng/mL CD40L (His tagged; R&D system) and 5 μg/mL anti-his-tag antibody (R&D system, Abingdon, UK). After 5 h, they were treated with increasing amount of ^177Lu-lilotomab (0 to 6 MBq/mL) combined or not with MK-1775 or PD-166285 (1 μM) for 18 h. At the end of incubation, 50% of cells were analyzed by flow cytometry and the remaining cells were collected, centrifuged and washed twice with medium before being seeded in 12-well plates for 3 days more. After 3 days, cells were collected and analyzed by flow cytometry. Live/Dead fixable dead cell stain (Fisher scientific), anti-CD45, CD3, CD19, CD20 and CD10 mAbs (BD Pharmigen, Le pont de Claix, France) and anti-Kappa mAb (DAKO, Les Ulis, France) were used and analyzed by flow cytometry to determine quantity and proportion of tumor and non-tumor cells alive.

[6] = system: Ramos cells; experiment: Immunoreactive fraction, one point modified Lindmo method; assay type: binding, human; details: 75 million Ramos cells/ml
Experimental: The immunoreactivity of the radioimmunoconjugates was measured using Ramos cells and a one point modified Lindmo method. The cell concentration used was 75 million cells/ml. The immunoreactivity of the conjugates was higher than 70%.
The immunoreactivity of the radioimmunoconjugates was measured using Ramos cells and a one point modified Lindmo method (1, 2). The cell concentration used was 75 million cells/ml. The immunoreactivity of the conjugates was higher than 70%.
The immunoreactivity of the radioimmunoconjugates was measured using Ramos cells and a one point modified Lindmo method. The cell concentration used was 75 million cells/ml. The immunoreactivity of the conjugates was higher than 70%).

CC1(C)CCC(CN2CCN(c3ccc(C(=O)NS(=O)(=O)c4ccc(NCC5CCOCC5)c([N+](=O)[O-])c4)c(Oc4cnc5[nH]ccc5c4)c3)CC2)=C(c2ccc(Cl)cc2)C1 [venetoclax]
IC50 ([1]; Homo sapiens, SU-DHL-6, read-out: IC50 at 120 h, SUDHL-6, 120 h incubation after seeding): 1160 nM
Combination Index (Chou-Talalay) ([1]; SUDHL-6, venetoclax 0.25 + Humalutin 0.5 μg/ml): 0.63
Combination Index (Chou-Talalay) ([1]; SUDHL-6, venetoclax 0.25 + Humalutin 1 μg/ml): 0.82
Combination Index (Chou-Talalay) ([1]; SUDHL-6, venetoclax 0.5 + Humalutin 0.5 μg/ml): 0.14
Combination Index (Chou-Talalay) ([1]; SUDHL-6, venetoclax 0.5 + Humalutin 1 μg/ml): 0.28
Combination Index (Chou-Talalay) ([1]; SUDHL-6, venetoclax 1 + Humalutin 0.5 μg/ml): 0.71
Combination Index (Chou-Talalay) ([1]; SUDHL-6, venetoclax 1 + Humalutin 1 μg/ml): 0.41
Combination Index (Chou-Talalay) ([1]; SUDHL-6, venetoclax 2.5 + Humalutin 0.5 μg/ml): 0.47
Combination Index (Chou-Talalay) ([1]; SUDHL-6, venetoclax 2.5 + Humalutin 1 μg/ml): 0.41

C=CCn1c(=O)c2cnc(Nc3ccc(N4CCN(C)CC4)cc3)nc2n1-c1cccc(C(C)(C)O)n1 [MK-1775]
Proliferation (treated/untreated cells) [2]: ~10%
Proliferation (treated/untreated cells) [3]: statistically reduced the proliferation

Nc1nc(Nc2ccc(S(N)(=O)=O)cc2)nn1C(=O)c1c(F)cccc1F [JNJ-7706621]
Effect of monotreatment on proliferation [4]: not evident at concentrations below 160 nM

B1: Lutetium-177 [^177Lu]-lilotomab satetraxetan (conjugate, chains of the INN, looked up)
VH: EIQLQQSGPELVKPGASVKVSCKASGYSFTDYNMYWVKQSHGKSLEWIGYIDPYNGDTTYNQKFKGKATLTVDKSSSTAFIHLNSLTSEDSAVYYCARSPYGHYAMDYWGQGTSVTVSS
VL: DIVMTQSHKLLSTSVGDRVSITCKASQDVSTAVDWYQQKPGQSPKLLINWASTRHTGVPDRFTGSGSGTDYTLTISSMQAEDLALYYCRQHYSTPFTFGSGTKLEIK
modifications: 177Lu satetraxetan chelator conjugate
Proportion of tumor cells [5]: reduced the proportion of tumor cells
Immunoreactivity [6]: higher than 70%
